Reference: patent US20100204460A1, “NATURAL BRASSINOSTEROIDS FOR USE FOR TREATING HYPERPROLIFERATION, TREATING PROLIFERATIVE DISEASES AND REDUCING ADVERSE EFFECTS OF STEROID DYSFUNCTION IN MAMMALS, PHARMACEUTICAL COMPOSITION AND ITS USE” (priority 2007, published 2010)
“And” between values parts separate entries of the source, which are not always exact repeats. Identical values can stand only once.

What was measured:
Format in all cases: cell-based
LNCaP cells = assay: TUNEL detection of apoptosis, LNCaP; conditions: IC50 concentration
Procedure: TdT-Mediated dUTP nick end labeling (TUNEL) detection of apoptosis index. For detection of apoptotic cells, the TUNEL assay was used. […] After period of treatment, the cells were washed with PBS and fixed on the slides with cold acetone-methanol (1:1, v/v) for 10 min. Apoptosis-induced nuclear DNA fragmentation was detected by terminal deoxynucleotidyl transferase-mediated UTP nick end labeling (TUNEL) technique according to the producer protocol (In Situ Cell Death Detection Kit; Roche Diagnostics, Mannheim, Germany). The cells were then washed three times in PBS and stained with 4′-6-diamidino-2-phenylindole (DAPI; 50 μg/ml; Sigma, St. Louis, Mo., USA) for 10 min in the dark. The coverslips with cells were washed in deionized water and mounted on glass slides, using the hydrophilic medium Mowiol (Calbiochem, Fremont, Calif., USA) in glycerol-PBS (1:3, v/v) for fluorescence. Cells were visualized using fluorescence microscopy and compared with control cells. TUNEL staining achieved to confirm apoptosis in all cell lines.

MDA-MB-468 cells = assay: Western blot of cell cycle and apoptosis related proteins, MDA-MB-468; conditions: for expression of apoptosis related proteins (Bcl-2 family, caspase-3 activation) (Western blot) / p21Waf1/Cip1 expression (Western blot) / p27Kip1 expression (Western blot): IC50 for 6, 12, 24 h vs untreated control; for retinoblastoma protein (Rb) expression, phosphorylated and dephosphorylated forms (Western blot): vs untreated control
Procedure: (§1) The cells were seeded in a density 1.6×10^4 cells/cm^2 (LNCaP), 1.4×10^4 cells/cm^2 (DU-145, MDA-MB-468 and MCF-7) using culture medium in 100-mm culture Petri dishes. After reaching of 70-80% confluence, the cells were treated with tested compounds 9 in concentration IC50 that were evaluated by MTT analysis described above. DMSO was used as a vehicle for controls. After 6, 12 and 24 h treatment, the cells were washed with cold PBS and scraped in ice-cold protein extract ion buffer (50 mM HEPES, pH 7.5; 150 mM NaCl; 1 mM EDTA; 2.5 mM EGTA; 10% glycerol; 0.1% Tween 20) with protease and phosphatase inhibitors (25 μL/mL phenylmethanesulphonyl fluoride; 2.5 μL/mL leupeptin; 0.1 mM Na3VO4; 2.5 μL/mL aprotinin; 10 mM β-glycerol-phosphate; 1 mM dithiothreitol). The lysates were collected into microfuge tube and incubated on ice for 1 h. Cells were incubated 60 min at 4° C. under time by time shaking in protein extraction buffer. After centrifugation at 45 000×g for 30 min at 4° C., supernatant was collected, aliquoted, and stored at −80° C. The protein content in the lysates was measured by a Bredford assay (Bio-Rad Laboratories, Hercules, Calif., USA) according to the manufacture's protocol.
(§2) For Western blot analysis, equal aliquots of proteins (15-30 μg/well) were loaded on 10% or 12% SDS-PAGE gels and transferred onto nitrocellulose membranes (Amersham Biosciences, Vienna, Austria) by semi-dry electrophoretic transfer. Coloured marker (Rainbow™, Amersham Biosciences, Vienna, Austria) was used as a protein molecular weight standard. The non-specific binding sites were blocked by incubating the blot with 5% (w/v) non-fat dry milk in PBS for 2 h. The blot was incubated overnight in 4° C. with appropriate primary antibody that detects the protein epitope of interest and finally washed in PBS with 0.1% Tween 20 for 1 h. The blot was incubated with the diluted secondary goat anti-mouse IgG-horseradish peroxidase conjugated antibody (dilution 1:6000, Santa Cruz Biotechnology, Santa Cruz, Calif., USA) or goat anti-rabbit IgG-horseradish peroxidase conjugated antibody (dilution 1:2000, DakoCytomation, Glostrup, Denmark) for 45 min in 4° C. The membrane was washed in PBS with 0.1% Tween 20 for 1 h. The proteins were detected using a chemiluminescence detection system (Amersham Biosciences, Vienna, Austria) according to the protocol provided by the manufacturer. Equality of loaded proteins was confirmed by Ponceau S membrane staining (Sigma, St. Louis, Mo., USA) and by detection of anti-tubulin-α or anti-mcm-7 antibodies. The experiments were repeated three times. The protein expressions in treated cells were compared to untreated controls.
(§3) Western blot analysis was used to detect changes in apoptosis related protein expression in breast and prostate cancer cell lines. […] This decreased expression of Bid can indicate a cleavage of the protein after treatment by BRs. In DU-145 cell line, expression of pro-apoptotic proteins Bax and Bid was unchanged. […] On the other hand, caspase cleavage was not found in DU-145 cells. Poly-(ADP-ribose) polymerase (PARP) positive expression in controls of prostate cancer cell lines was observed but brassinosteroids had no effect on its expression nor on its degradation within the period 6/12/24 h (FIG. 6B).

MCF-7 cells = assay: Western blot of cell cycle and apoptosis related proteins, MCF-7; conditions: for MDM-2 expression (Western blot) / expression of apoptosis related proteins (Bcl-2 family, caspase-3 activation) (Western blot) / p21Waf1/Cip1 expression (Western blot) / p27Kip1 expression (Western blot) / p53 expression (Western blot): IC50 for 6, 12, 24 h vs untreated control; for retinoblastoma protein (Rb) expression, phosphorylated and dephosphorylated forms (Western blot): vs untreated control
Procedure: as §1, §2, §3

[1] = system: T-lymphoblastic leukaemia cell line CEM; assay: Calcein AM cytotoxicity assay, CEM; conditions: CEM; six 4-fold dilutions, exposure 72 h (b71 says 96 h); mean ± SD; read-out: IC50 assessed by Calcein AM assay of surviving cells
DU-145 cells = assay: BrdU incorporation assay, DU-145
Procedure: To analyze if the inhibition in cell viability was due to decreased cell proliferation, we measured DNA synthesis in the presence of BRs. The effect of brassinosteroids 9 or 6 on cell proliferation and DNA replication of the cancer cells was measured by BrdU incorporation assay. This immunostaining was based on nuclear incorporation of bromodeoxyuridine (BrdU) into DNA in place of thymidine during the S-phase of cell cycle detected by anti-specific-BrdU antibody following membrane permeabilization as described previously (Gratzner, Science. 1982, 218, 474-475). […] The BrdU reagent (0.1 mM; Sigma, MO, USA) was added in culture medium with cells for 4 h in a CO2 incubator at 37° C. After incubation the cells were washed three times with PBS and fixed with cold acetone-methanol (1:1, v/v) for 10 min. The cells were denaturated by HCl (1:5; Lachema, Czech Republic) and incubated with anti-specific-BrdU antibody (diluted 1:100 in PBS; clone Bu20a, DakoCytomation, Denmark) for 60 min in the dark. The cells were then washed three times in PBS (10 mM, pH 7.4) and incubated with goat anti-mouse fluorescein isothiocyanate (FITC)-labeled secondary antibody (Sigma, MO, USA) for 60 min in the dark. The cells were then washed three times in PBS and incubated with DAPI (50 μg/mL; Sigma, MO, USA) for 10 min in the dark. The coverslips with cells were washed in deionized water and mounted on glass slides, using the hydrophilic medium Mowiol (Calbiochem, Calif., USA) in glycerol-PBS (1:3, v/v) for fluorescence. Cells were visualized using microscopy and those incorporating BrdU (S phase cells) were counted in at least 25 fields and compared with the total number of all cells.

[2] = treated at IC50 for 6 h, control 51 ± 3.8
[3] = treated at IC50 for 12 h, control 54 ± 4.2
[4] = treated at IC50 for 24 h, control 56 ± 6.5

Row | SMILES | percentage of TUNEL positive cells (LNCaP cells; 6 h, control 0.3 ± 0.6) [%] | percentage of TUNEL positive cells (LNCaP cells; 12 h, control 0.6 ± 0.6) [%] | percentage of TUNEL positive cells (LNCaP cells; 24 h, control 0.6 ± 0.6) | cyclin D1 expression (Western blot) (MDA-MB-468 cells; 6/12/24 h vs untreated control) | expression of apoptosis related proteins (Bcl-2 family, caspase-3 activation) (Western blot) (MDA-MB-468 cells) | p21Waf1/Cip1 expression (Western blot) (MDA-MB-468 cells) | p27Kip1 expression (Western blot) (MDA-MB-468 cells) | retinoblastoma protein (Rb) expression, phosphorylated and dephosphorylated forms (Western blot) (MDA-MB-468 cells) | cyclin D1 expression (Western blot) (MCF-7 cells; 6/12/24 h vs untreated control) | MDM-2 expression (Western blot) (MCF-7 cells) | expression of apoptosis related proteins (Bcl-2 family, caspase-3 activation) (Western blot) (MCF-7 cells) | p21Waf1/Cip1 expression (Western blot) (MCF-7 cells) | p27Kip1 expression (Western blot) (MCF-7 cells) | p53 expression (Western blot) (MCF-7 cells) | retinoblastoma protein (Rb) expression, phosphorylated and dephosphorylated forms (Western blot) (MCF-7 cells) | IC50 [1] [µM] | percentage of proliferating BrdU positive cells (DU-145 cells; [2]) [%] | percentage of proliferating BrdU positive cells (DU-145 cells; [3]) [%] | percentage of proliferating BrdU positive cells (DU-145 cells; [4]) [%]
1 | CC(C)[C@@H](C)[C@@H](O)[C@H](O)[C@@H](C)[C@H]1CC[C@H]2[C@@H]3COC(=O)[C@H]4C[C@H](O)[C@H](O)C[C@]4(C)[C@H]3CC[C@]12C [Brassinosteroid 6, 24-Epibrassinolide] | 10.7 ± 4.0 | 12.2 ± 5.1 | 21.9% and 21.9 ± 3.0 % | decreased expression of cyclin D1 | no significant changes in expression of Bcl-2 family protein nor caspase-3 activation | significantly increased after 12 and 24 h | decreased in all time points | decreased | decreased expression of cyclin D1 | decreased expression of MDM-2 regulator of p53 degradation after all time points | no significant changes in expression of Bcl-2 family protein nor caspase-3 activation | unchanged | decrease after 6 and 12 h | after 6 h exposition to brassinosteroids 9 or 6 a slight increase | decreased | 44 ± 2.2 | 32 ± 3.8 | 27 ± 5.3 | 16 ± 1.5
2 | CC[C@@H](C(C)C)[C@@H](O)[C@H](O)[C@@H](C)[C@H]1CC[C@H]2[C@@H]3CC(=O)[C@H]4C[C@H](O)[C@H](O)C[C@]4(C)[C@H]3CC[C@]12C [Brassinosteroid 9, 28-Homocastasterone] | 7.3 ± 2.1 | 15.7 ± 2.5 | 25.8% and 25.8 ± 2.5 % |  | no significant changes in expression of Bcl-2 family protein nor caspase-3 activation | no significant changes | no significant changes | decreased |  | decreased expression of MDM-2 regulator of p53 degradation after all time points | no significant changes in expression of Bcl-2 family protein nor caspase-3 activation | increase in p21^Waf1/Cip1 and p27^Kip1 expression after 6 h | increase in p21^Waf1/Cip1 and p27^Kip1 expression after 6 h | after 6 h exposition to brassinosteroids 9 or 6 a slight increase | decreased | 13 | 41 ± 4.5 | 36 ± 4.4 | 38 ± 4.0
